Assay results reported in patent US9139567B2, “Arylpyrazole ethers as inhibitors of leukotriene A4 hydrolase” (Boehringer Ingelheim International GmbH, priority 2011, dated 2015).

Legend:
human LTA4 hydrolase = molecular target: T1, human LTA4 hydrolase (Homo sapiens, UniProt P09960); experiment: LTA4H enzyme assay (cleavage of Arg-AMC, fluorescence); format: biochemical; details: LTA4H enzyme 1 nM, Arg-AMC substrate 50 μM, room temperature 1 h
T1 sequence (P09960 1-611): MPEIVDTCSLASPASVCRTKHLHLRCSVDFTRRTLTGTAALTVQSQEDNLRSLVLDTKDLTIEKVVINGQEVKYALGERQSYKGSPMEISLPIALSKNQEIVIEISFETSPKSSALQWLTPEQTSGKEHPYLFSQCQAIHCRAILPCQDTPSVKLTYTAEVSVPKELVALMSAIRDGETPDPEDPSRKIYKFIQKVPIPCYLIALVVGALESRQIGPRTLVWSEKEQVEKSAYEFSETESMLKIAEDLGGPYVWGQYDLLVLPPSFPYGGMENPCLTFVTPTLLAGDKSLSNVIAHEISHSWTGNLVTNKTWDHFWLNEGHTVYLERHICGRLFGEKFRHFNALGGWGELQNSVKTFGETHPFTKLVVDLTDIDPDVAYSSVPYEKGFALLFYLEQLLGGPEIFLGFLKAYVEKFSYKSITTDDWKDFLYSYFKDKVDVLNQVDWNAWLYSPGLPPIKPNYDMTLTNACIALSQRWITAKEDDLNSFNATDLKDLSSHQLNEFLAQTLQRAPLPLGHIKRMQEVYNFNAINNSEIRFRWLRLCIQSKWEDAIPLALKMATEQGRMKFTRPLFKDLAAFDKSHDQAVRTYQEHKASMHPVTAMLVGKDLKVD
Method: Compounds are assessed for the ability to interact with human LTA4 hydrolase in an enzymatic assay that measures the ability of the enzyme to cleave the peptide bond of arginyl-aminomethylcoumarin (Arg-AMC). LTA4H Enzyme (1 nM final), Arg-AMC substrate (50 μM final), and compound are combined in a reaction buffer (50 mM Tris-HCl (pH 7.5), 100 mM KCl, 0.5% bovine serum albumin) at room temperature for 1 h. The formation of product is assessed by measuring the fluorescence of aminomethylcoumarin product (excitation wavelength 380 nm/emission wavelength 460 nm).

[1] = test system: LTB4 production in human whole blood; experiment: LTB4 production inhibition assay in human whole blood (calcimycin-stimulated); format: cell-based; details: heparinized human whole blood, 15 min 37° C., calcimycin 20 μM 30 min, plasma LTB4 by HTRF
Method: Compounds of the invention are additionally tested in a human whole blood assay to determine their ability to inhibit the synthesis of LTB4 in a cellular system. Compounds are combined with heparinized human whole blood and incubated for 15 minutes at 37° C. Calcimycin (20 μM final, prepared in phosphate-buffered saline, pH 7.4) is then added and the mixture is incubated for another 30 minutes at 37° C. The samples are centrifuged for 5 min at low speed (1500×g) and the plasma layer is removed. Plasma LTB4 concentrations are then measured using an antibody-based homogenous time-resolved fluorescence method (CisBio, Bedford, Mass.).

Row | IC50 (human LTA4 hydrolase) [nM] | IC50 [1] [nM] | SMILES
1 | 4.9 | 2390 | c1cc(-c2ccc(Oc3ccc(OCc4cncs4)cc3)cc2)[nH]n1 [Example 70, 5-({4-[4-(1H-pyrazol-5-yl)phenoxy]phenoxy}methyl)-1,3-thiazole]
2 | 59.5 | ≥ 5000 | c1cc(-c2ccc(Oc3ccc(OCc4ccc5ncsc5c4)cc3)cc2)[nH]n1 [Example 71, 6-({4-[4-(1H-pyrazol-5-yl)phenoxy]phenoxy}methyl)-1,3-benzothiazole]
3 | 6.1 | 2550 | c1cc(-c2ccc(Oc3ccc(OCCc4cnoc4)cc3)cc2)[nH]n1 [Example 72, 4-(2-{4-[4-(1H-pyrazol-5-yl)phenoxy]phenoxy}ethyl)isoxazole]
4 | 10.4 | 4100 | c1cc(-c2ccc(Oc3ccc(OCc4nccs4)cc3)cc2)[nH]n1 [Example 73, 2-({4-[4-(1H-pyrazol-5-yl)phenoxy]phenoxy}methyl)-1,3-thiazole]
5 | 17.9 | 2550 | Cc1ncoc1COc1ccc(Oc2ccc(-c3ccn[nH]3)cc2)cc1 [Example 74, 4-methyl-5-({4-[4-(1H-pyrazol-5-yl)phenoxy]phenoxy}methyl)-1,3-oxazole]
6 | 6.6 | 2840 | c1cnc(COc2ccc(Oc3ccc(-c4ccn[nH]4)cc3)cc2)nc1 [Example 75, 2-({4-[4-(1H-pyrazol-5-yl)phenoxy]phenoxy}methyl)pyrimidine]
7 | 0.9 | 1420 | c1cc(-c2ccc(Oc3ccc(OCc4ccc5nccn5c4)cc3)cc2)[nH]n1 [Example 76, 6-({4-[4-(1H-pyrazol-5-yl)phenoxy]phenoxy}methyl)imidazo[1,2-a]pyridine]
8 | 1 | 492 | Cc1nnsc1COc1ccc(Oc2ccc(-c3ccn[nH]3)cc2)cc1 [Example 77, 4-Methyl-5-{4-[4-(2H-pyrazol-3-yl)-phenoxy]-phenoxymethyl}-[1,2,3]thiadiazole]
9 | 2.8 | 1650 | c1cc(-c2ccc(Oc3ccc(OCc4cnco4)cc3)cc2)[nH]n1 [Example 78, 5-({4-[4-(1H-pyrazol-5-yl)phenoxy]phenoxy}methyl)-1,3-oxazole]
10 | 2.7 | 2110 | CC(COc1ccc(Oc2ccc(-c3ccn[nH]3)cc2)cc1)Cn1cccn1 (stereo not shown) [Example 79, 1-(2-methyl-3-{4-[4-(1H-pyrazol-5-yl)phenoxy]phenoxy}propyl)-1H-pyrazole]
11 | 1.9 | 1650 | c1cnn(-c2ccc(COc3ccc(Oc4ccc(-c5ccn[nH]5)cc4)cc3)cn2)c1 [Example 80, 2-(1H-pyrazol-1-yl)-5-({4-[4-(1H-pyrazol-5-yl)phenoxy]phenoxy}methyl)pyridine]
12 | 14.2 | ≥ 5000 | c1cc(-c2ccc(Oc3ccc(OCc4ccc5[nH]cnc5c4)cc3)cc2)[nH]n1 [Example 81, 5-({4-[4-(1H-pyrazol-5-yl)phenoxy]phenoxy}methyl)-1H-benzimidazole]
13 | 7.9 | 2670 | c1cc(-c2ccc(Oc3ccc(OCCC4CCOCC4)cc3)cc2)[nH]n1 [Example 82, 5-(4-{4-[2-(tetrahydro-2H-pyran-4-yl)ethoxy]phenoxy}phenyl)-1H-pyrazole]
14 | 2.9 | 1740 | c1cc(-c2ccc(Oc3ccc(OCC4CCCOC4)cc3)cc2)[nH]n1 (stereo not shown) [Example 83, 5-{4-[4-(tetrahydro-2H-pyran-3-ylmethoxy)phenoxy]phenyl}-1H-pyrazole]
15 | 4.6 | 1460 | c1cc(-c2ccc(Oc3ccc(OCC4CCOCC4)cc3)cc2)[nH]n1 [Example 84, 5-{4-[4-(tetrahydro-2H-pyran-4-ylmethoxy)phenoxy]phenyl}-1H-pyrazole]
16 | 0.8 | ≥ 5000 | O=C1CC[C@H](COc2ccc(Oc3ccc(-c4ccn[nH]4)cc3)cc2)O1 [Example 85, (5R)-5-({4-[4-(1H-pyrazol-5-yl)phenoxy]phenoxy}methyl)dihydrofuran-2(3H)-one]
17 | 0.8 | 4500 | O=C1CC[C@@H](COc2ccc(Oc3ccc(-c4ccn[nH]4)cc3)cc2)O1 [Example 86, (5S)-5-({4-[4-(1H-pyrazol-5-yl)phenoxy]phenoxy}methyl)dihydrofuran-2(3H)-one]
18 | 23.1 | ≥ 5000 | O=C1OCC[C@@H]1Oc1ccc(Oc2ccc(-c3ccn[nH]3)cc2)cc1 [Example 87, (3S)-3-{4-[4-(1H-pyrazol-5-yl)phenoxy]phenoxy}dihydrofuran-2(3H)-one]
19 | 16.4 | ≥ 5000 | O=C1OCC[C@H]1Oc1ccc(Oc2ccc(-c3ccn[nH]3)cc2)cc1 [Example 88, (3R)-3-{4-[4-(1H-pyrazol-5-yl)phenoxy]phenoxy}dihydrofuran-2(3H)-one]
20 | 4.8 | 1770 | c1cc(-c2ccc(Oc3ccc(OC4CCOCC4)cc3)cc2)[nH]n1 [Example 89, 5-{4-[4-(tetrahydro-2H-pyran-4-yloxy)phenoxy]phenyl}-1H-pyrazole]
21 | 2.4 | 777 | c1cc(-c2ccc(Oc3ccc(O[C@H]4CCOC4)cc3)cc2)[nH]n1 [Example 90, 5-(4-{4-[(3S)-tetrahydrofuran-3-yloxy]phenoxy}phenyl)-1H-pyrazole]
22 | 10.7 | ≥ 5000 | c1cc(-c2ccc(Oc3ccc(OCC4CCCCO4)cc3)cc2)[nH]n1 (stereo not shown) [Example 91, 5-{4-[4-(tetrahydro-2H-pyran-2-ylmethoxy)phenoxy]phenyl}-1H-pyrazole]
23 | 3.3 | 1200 | c1cc(-c2ccc(Oc3ccc(OCC4CCOC4)cc3)cc2)[nH]n1 (stereo not shown) [Example 92, 5-{4-[4-(tetrahydrofuran-3-ylmethoxy)phenoxy]phenyl}-1H-pyrazole]
24 | 26.9 | 4600 | c1cc(-c2ccc(Oc3ccc(OCCC4CCCCO4)cc3)cc2)[nH]n1 (stereo not shown) [Example 93, 5-(4-{4-[2-(tetrahydro-2H-pyran-2-yl)ethoxy]phenoxy]phenyl)-1H-pyrazole]
25 | 14.1 | 2000 | c1cc(-c2ccc(Oc3ccc(OC4CCCOC4)cc3)cc2)[nH]n1 (stereo not shown) [Example 94, 5-{4-[4-(tetrahydro-2H-pyran-3-yloxy)phenoxy]phenyl}-1H-pyrazole]
26 | 1.6 | 367 | O=C1CC[C@@H](Oc2ccc(Oc3ccc(-c4ccn[nH]4)nc3)cc2)CN1 [Example 95, (5R)-5-(4-{[6-(1H-pyrazol-5-yl)pyridin-3-yl]oxy}phenoxy)piperidin-2-one]
